1 compound from US10183014B2, “Ocular formulations for drug-delivery and protection of the anterior segment of the eye” (PanOptica, Inc., priority 2014, dated 2019) can be followed below.

The target in data set [1] is T1, EGFR (Homo sapiens, UniProt P00533).
T1 construct: endogenous in cells; host or cells: hTCEpi (immortalized corneal epithelial cells)
Briefly: EGFR tyrosine phosphorylation assay in hTCEpi cells with a second active agent. As to conditions: vitamin K 50 μM, nicotinic acid 10 μM or nicotinamide 10 μM, 4 hours pre-treatment, EGF 50 ng/ml. It is filed as cell-based. As for the experimental part:
An EGFR tyrosine assay in corneal epithelial cells is run to determine if Vitamin K or nicotinic acid/nicotinamide can overcome inhibition of EGFR and if there is an increase in EGFR activity. […] Cells are harvested cells and immunoblotted for determination of phosphorylated EGFR (tyrosine 1068 and tyrosine 1045) and total EGFR concentration which was used to determine receptor activity (IC50).
The cells were then incubated with EGF (50 ng/ml) for 15 minutes. Cells were harvested and cell lysates were immunoblotted for determination of phosphorylated EGFR (tyrosine 1068 and tyrosine 1045) and total EGFR concentration.

In a further data set the test system is hTCEpi cells. As to the kind of experiment: Cell migration/proliferation (in vitro wound healing) in hTCEpi cells: compound and second active agent. It is filed as cell-based. The conditions noted are these: 0.3 μM menadione. On the procedure: Determination of cell migration/proliferation in corneal epithelial cells is run to determine cell migration/proliferation in the presence of varying concentrations of a compound of Formula I or II, vitamin K, or nicotinic acid/nicotinamide. Cells are plated with silicone plugs. The cells are then serum starved and pre-treated with varying concentrations of a compound of Formula I or II or a control. The plugs are removed and the cells are treated with 1) EGF, 2) EGF and vitamin K or 3) EGF and nicotinic acid/nicotinamide. Cell migration is quantified from micrographs.
hTCEpi cells were plated with silicone plugs. The cells were then serum starved and pre-treated with varying concentrations of vitamin K3 analog, menadione, for 4 hours and supplemented with the varying concentrations of a compound of Formula I or II for 30 minutes. The plugs were removed. The cells were photographed and then treated with various concentrations of vitamin K, EGF, and/or a compound of Formula I or II. The cells were again photographed and cell migration was quantified from the micrographs. Additional controls run included no compound of Formula I or II and no EGF. All experiments were repeated three times.

In a further data set the test system is corneas of C57/Bl mice. Briefly: Corneal wound healing in vivo with a second active agent. The conditions noted are these: 0.3 μM menadione, 48 hours pre-treatment. As for the experimental part:
Determination of the effects of a compound of Formula I or II and/or a second active agent on corneal wound healing was determined in mice. Corneas of C57/Bl mice are wounded and then pre-treated with a compound of Formula I or II, followed by addition of EGF, vitamin K, or nicotinic acid/nicotinamide. Wound size and closure are monitored.
Corneas of 8 week old C57/Bl mice were pre-treated with topical administration of vehicle, 0.3 μM menadione, 10 μM of a compound of Formula I or II, 0.3 μM menadione and 10 μM of a compound of Formula I or II 48 hours before the corneas were wounded (1.5 mm superficial epithelial wound). Wound size was monitored by fluorescein staining and fluorescent photography. Wound closure was monitored over the course of 40 hours.

Data set [2] deals with T1, EGFR. As to the kind of experiment: Mechanism by which menadione enhances EGFR activity (hTCEpi immunoblot). Further details: Kinetics of EGFR degradation: dose or concentration left out as unconfirmed. It counts as cell-based. On the procedure:
[…] Cells were then incubated with 8.0 nM (50 ng/ml) EGF for 0-3 hours. The cells were lysed and the lysates were resolved by SDS-PAGE, and immunoblotted for phosphorylated EGFR (pY1068), total EGFR, or α-tubulin.
For orientation: In western blotting, separated proteins are transferred to a membrane and probed.

Data set [3] can be described thus: Ocular pharmacokinetics of formulations, Example 20-3. The conditions noted are these: 1.0 μM Vit K3 suspension, 30 μL/eye/dose QD for 4 Days, 1 hr post dose on Day 5; for Vitamin K3 concentration in Cornea: LLOQ = 2.91 μM; for Vitamin K3 concentration in Central Choroid: LLOQ = 43.6 μM. It is filed as in vivo, Dutch Belted rabbits. On the procedure: The study design (Table 17-1) consisted of thirty-nine (39) Dutch Belted rabbits, each receiving a 30 μL bilateral topical ocular dose. Various suspension formulations of the present application were evaluated and compared against two control formulations: a) a cyclodextrin-based eye drops solution (Control Group 13, Table 17-1), and b) a pilot suspension formulation used in previous rabbit pharmacokinetic studies, (Group 10, Table 17-1). Formula II or Compound-I was used in the test suspensions, whereas the Eye Drops solution formulation is derived with the Compound-I.
(§1) Ocular sampling occurred one hour following the first daily dose on Day 5 for all groups. Whole blood samples using K2EDTA as an anticoagulant were collected from all animals on Day 5, 1 hour post dose. The whole blood was placed on ice until samples were spun in a centrifuge to separate the plasma. Aqueous humor, conjunctiva, cornea, central retina, peripheral retina, central choroid, and peripheral choroid samples were collected following necropsy. Samples were then frozen at −70° C. or lower. For all Groups 1-13, plasma, central retina, central choroid, and cornea samples were assayed.
Additionally, Vitamin K3 concentrations were determined in plasma, central retina, central choroid, and cornea samples for animals from Groups 8 and 9. A calibration curve prepared in control matrix was used to determine the concentration of Vitamin K3.

Data set [4] is described as follows: Ocular pharmacokinetics of formulations, Example 20-5. It is filed as in vivo, Dutch Belted rabbits. On the procedure:
The study design (Table 19-1) consisted of forty-seven (47) Dutch Belted rabbits, each receiving a 30 μL bilateral topical ocular dose. Various suspension formulations of the present application were evaluated and compared against a cyclodextrin-based eye drops solution (Control Group 1, Table 19-1). Formula II or Compound-I was used in the test suspensions as well as the Eye Drops solution.
as §1, with “1-15,” for “1-13,”, “assayed. For Group 5 only, samples were analyzed for Vitamin K3.” for “assayed.”
An analytical method for the analysis of Vitamin K3 was determined in plasma, central retina, central choroid, and cornea samples from Group 5 animals. A calibration curve prepared in control vitreous humor was used to determine the concentration of Vitamin K3. Internal standard (IS) responses were inconsistent for the central choroid and plasma samples. Thus, positive plasma results were likely due to the reduced IS response.

Data set [5] is described as follows: Particle size distribution by laser diffraction light scattering. It is filed as physicochemical. As to conditions: 5% menadione, HPMC formulation, roller milled; 40° C. As for the experimental part: Particle size distribution can be analyzed using laser diffraction light scattering, e.g., with a Horiba LA-950 V2. Generic assumptions are made in setting conditions and the refractive index value. The distributions are volume based. Sample density is adjusted to a generic range of percent transmission on the blue LED light source. A small sample cell (filled with water) can be used rather than the flow through cell, to minimize sample quantity.
Particle size distribution was analyzed using laser diffraction light scattering with a Horiba LA-950 V2. Generic assumptions were made in setting conditions and the refractive index value. The distributions were volume based. Sample density was adjusted to a generic range of percent transmission on the blue LED light source. A small sample cell (filled with water) was used rather than the flow through cell, to minimize sample quantity.

The mark [6] stands for this setting: Group 8: Formula II 4 mg/mL, HPMC.
Where [7] appears, read: Group 9: Formula II 4 mg/mL, Pluronic.

Structures are written as SMILES. A value given as a limit tells only on which side of the number the result lay.

T1 sequence (P00533 25-1210): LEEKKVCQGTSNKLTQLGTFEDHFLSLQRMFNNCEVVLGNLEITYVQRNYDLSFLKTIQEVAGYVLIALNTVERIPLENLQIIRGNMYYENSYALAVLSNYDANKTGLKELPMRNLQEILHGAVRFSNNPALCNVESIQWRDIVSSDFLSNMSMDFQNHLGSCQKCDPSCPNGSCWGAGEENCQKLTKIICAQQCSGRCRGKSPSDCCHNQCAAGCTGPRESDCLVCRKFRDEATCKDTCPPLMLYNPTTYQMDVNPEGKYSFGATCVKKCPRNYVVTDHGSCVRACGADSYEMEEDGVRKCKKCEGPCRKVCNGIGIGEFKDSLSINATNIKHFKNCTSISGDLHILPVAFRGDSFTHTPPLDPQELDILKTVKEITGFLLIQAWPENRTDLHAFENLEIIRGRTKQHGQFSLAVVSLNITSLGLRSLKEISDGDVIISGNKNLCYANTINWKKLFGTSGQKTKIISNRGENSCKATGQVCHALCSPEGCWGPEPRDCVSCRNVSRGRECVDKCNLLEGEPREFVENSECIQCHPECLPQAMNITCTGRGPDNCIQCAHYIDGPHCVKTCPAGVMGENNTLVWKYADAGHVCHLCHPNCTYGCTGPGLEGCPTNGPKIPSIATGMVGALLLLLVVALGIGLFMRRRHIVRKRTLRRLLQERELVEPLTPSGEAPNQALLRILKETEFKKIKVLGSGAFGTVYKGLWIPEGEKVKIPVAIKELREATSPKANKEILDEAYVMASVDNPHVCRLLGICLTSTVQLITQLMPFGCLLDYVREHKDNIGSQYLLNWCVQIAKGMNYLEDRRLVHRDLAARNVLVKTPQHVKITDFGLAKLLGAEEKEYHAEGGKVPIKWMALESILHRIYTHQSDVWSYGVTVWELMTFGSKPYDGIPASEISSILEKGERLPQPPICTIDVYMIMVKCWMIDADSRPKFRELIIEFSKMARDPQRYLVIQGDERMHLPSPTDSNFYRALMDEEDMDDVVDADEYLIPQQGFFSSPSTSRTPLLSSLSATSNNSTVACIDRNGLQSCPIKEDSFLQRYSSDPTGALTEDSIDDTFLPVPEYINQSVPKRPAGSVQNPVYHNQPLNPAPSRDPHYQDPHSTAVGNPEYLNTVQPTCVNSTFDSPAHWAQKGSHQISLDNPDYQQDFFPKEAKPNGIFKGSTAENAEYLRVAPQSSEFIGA

In the case of `CC1=CC(=O)c2ccccc2C1=O` [menadione], the “Effect on Formula I or II compound-mediated EGFR inhibition” value at EGFR [1] was “overcome”; on EGFR [1] (listed as vitamin K3) it was “most effectively attenuated”. Further, the “Effect on inhibition of in vitro wound healing by a compound of Formula I or II” value in the data set on hTCEpi cells was “reversed”. In addition, in the data set on corneas of C57/Bl mice, the “Effect on corneal epithelial wound healing after pre-treatment with a compound of Formula I or II (10 μM)” value was “reversed the effects”. Further, at EGFR [2] (0.3 or 3.0 μM, 4 hours, 50 ng/ml EGF 0-3 hours), the “Basal EGFR phosphorylation and EGFR dephosphorylation” value is “did not change”. Besides, the “Kinetics of EGFR degradation” value on EGFR [2] (menadione) is listed as “slowed the kinetics of EGFR degradation”. Also, the “Vitamin K3 concentration in Cornea” value in data set [3] (setting [6]) and in data set [3] (setting [7]) was “<LLOQ” in each case. Moreover, the “Vitamin K3 concentration in Central Choroid” value in data set [3] (setting [6]) and in data set [3] (setting [7]) was “<LLOQ” each time. Besides, the “Vitamin K3 concentration in Plasma” value in data set [3] (Group 8: Formula II 4 mg/mL, HPMC, average n = 3, LLOQ = 0.291 μM) is given as “<LLOQ”. For the same compound, the “Vitamin K3 concentration in Central Retina” value in data set [3] (Group 9: Formula II 4 mg/mL, Pluronic, LLOQ = 11.6 μM) is “<LLOQ”. Also, the “Vitamin K3 in central retina and cornea samples” value in data set [4] (Group 5) is “no quantitative results”. Moreover, in data set [4] (Group 5: Compound-I 4 mg/mL suspension with Vitamin K3 1 μM, QD for 4 days, 1 hr post dose on Day 5, LLOQ = 0.145 μM), the “Vitamin K3 Cornea concentration” value was “<LLOQ”. In data set [4] (Group 5: Compound-I 4 mg/mL suspension with Vitamin K3 1 μM, QD for 4 days, 1 hr post dose on Day 5, LLOQ = 0.581 μM), the “Vitamin K3 Central Retina concentration” value is on record as “<LLOQ”. Also, the Stability of suspension result in data set [5] was “short term stability”.
